{
  "source": "patent US20160193372A1",
  "about": "“METHODS OF IDENTIFYING SURROGATE IMAGING AGENTS FOR ALPHA EMITTER RADIOPHARMACEUTICALS AND THEIR USE IN TREATMENT OF DISEASE” (THE JOHNS HOPKINS UNIVERSITY, priority 2012, published 2016)",
  "origin": "cited, not measured here",
  "test_system": "mineralizing or proliferating bone matrix",
  "details": "very high administered activities",
  "data": [
    {"substance": "^153Sm-EDTMP", "values": [
      {"measurement": "pain effect in OS", "result": "pain palliation"},
      {"measurement": "therapeutic efficacy in OS", "result": "minimal therapeutic efficacy"}
    ]}
  ]
}
